Data: US20010027209A1, “Method and composition for treating and preventing mycobacterium infections” (Sarawak Medichem Pharmaceuticals, Inc., priority 1998, published 2001)
In brackets after ≈: the same amount, converted by molar mass. Several values for one entry are separate records, joined by “and”; a condition that tells them apart may be missing. Equal entries are not always repeated. Where two headings read alike, the source gives them in different places.

Experiments:
[1] = test system: Mycobacterium tuberculosis H37Rv; experiment: in vitro primary screening assay in BACTEC 12B medium, BACTEC 460 radiometric system; format: cell-based; details: for MIC: M. tuberculosis H37Rv; for inhibition at 12.5 µg/mL: H37RV
Mtb = details: against Mtb, background section; cited from earlier work
M. tuberculosis H37Rv = experiment: actual minimum inhibitory concentration (MIC) at lower concentrations, BACTEC 460; format: cell-based; details: Mycobacterium tuberculosis, lowest concentration inhibiting 99% of the inoculum
[2] = table of Example 38, 12.5 μg/mL
[3] = Mycobacterium tuberculosis, concentration 12.5 μg/mL, BACTEC 12B medium, read-out: inhibition against Mtb H37Rv
[4] = Mycobacterium tuberculosis, table of Example 38, 12.5 μg/mL, read-out: % Inhibition
[5] = Mycobacterium tuberculosis, table of Example 38, read-out: MIC
[6] = concentration 12.5 μg/mL, BACTEC 12B medium

Question: Which “% Inhibition” value [1, 2] does the source give for `CCCc1cc(=O)oc2c3c(c4c(c12)OC(C)(C)CC4)OC(C)C(C)C3=O` (racemic) [(±)-Trans-dihydroketone, (±)-10,11-trans-4-Propyl-7,8,10,11-tetrahydro-6,6,10,11-tetramethyl-2 H,6 H,12 H-benzo[1,2-b:3,4-b′:5,6-b″]tripyran-2,12-dione] here?
Answer: 43%

Question: What about the “MIC” value ([1]; table of Example 38) of the same compound?
Answer: <12.5 µg/mL

Question: Which “% Inhibition” value [1, 2] does the source give for `CCCc1cc(=O)oc2c3c(c4c(c12)OC(C)(C)C=C4)OC(C)C(C)C3=O` (racemic) [(±)-Trans-ketone, 10,11-trans-dihydro-4-propyl-6,6,10,11-tetramethyl-2 H,6 H,12 H-benzo[1,2-b:3,4b′:5,6-b″]-tripyran-2,12-dione] here?
Answer: 59%

Question: What about the “MIC” value ([1]; table of Example 38) of the same compound?
Answer: <12.5 µg/mL

Question: What does the source list for `CCCc1cc(=O)oc2c3c(c4c(c12)OC(C)(C)C=C4)OC(C)C(C)C3=O` (single isomer, unassigned; (-)) [(−)-Trans-ketone]?
Answer: % Inhibition [1, 2]: 78%; MIC ([1]; table of Example 38): <12.5 µg/mL

Question: With `CCCc1cc(=O)oc2c3c(c4c(c12)OC(C)(C)C=C4)O[C@@H](C)[C@H](C)[C@@H]3O` [Costatolide, (−)-calanolide B] as the compound, how does the inhibition at 12.5 µg/mL [1, 3] read?
Answer: 99%

Question: And the inhibition at 12.5 µg/mL [1, 4]?
Answer: 99%

Question: What about the MIC [1, 5] of the same compound?
Answer: < 12.5 µg/mL

Question: With `NC(=O)c1cnccn1` [Pyrazinamide] as the compound, how does the MIC (Mtb) read?
Answer: 20 µg/mL (≈ 162 µM)

Question: Which inhibition at 12.5 µg/mL [1, 3] does the source give for `C[C@H]1[C@H](C)Oc2c3c(c4c(-c5ccccc5)cc(=O)oc4c2[C@H]1O)OC(C)(C)C=C3` [Soulattrolide] here?
Answer: 99%

Question: What about the inhibition at 12.5 µg/mL [1, 4] of the same compound?
Answer: 99%

Question: What about the MIC [1, 5] of the same compound?
Answer: < 12.5 µg/mL

Question: Which MIC (M. tuberculosis H37Rv) does the source give for `CO[C@H]1/C=C/O[C@@]2(C)Oc3c(C)c(O)c4c(O)c(c(/C=N/N5CCN(C)CC5)c(O)c4c3C2=O)NC(=O)/C(C)=C\C=C\[C@H](C)[C@H](O)[C@@H](C)[C@@H](O)[C@@H](C)[C@H](OC(C)=O)[C@@H]1C` [rifampicin] here?
Answer: 0.06 µg/mL (≈ 0.0729 µM)

Question: With (+)-Calanolide A as the compound, how does the “inhibition against Mtb H37Rv” value [1, 6] read?
Answer: 98% and 96%

Question: Which “inhibition against Mtb H37Rv” value [1, 6] does the source give for “(−)-7,8-dihydrosoulattrolide [(−)-7,8-Dihydrosoulatrolide]” here?
Answer: 99%

Question: What about the “% Inhibition” value [1, 2] of the same compound?
Answer: 99%

Question: What about the “MIC” value ([1]; table of Example 38) of the same compound?
Answer: <12.5 µg/mL

Question: Which “inhibition against Mtb H37Rv” value [1, 6] does the source give for (−)-Calanolide A here?
Answer: 98%
